Data as given in ChEMBL document CHEMBL1201862, “PubChem BioAssay data set” (2004).
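Following 48 hours of exposure in 96-well plates, responses at five concentrations were used to interpolate endpoints linearly. The concentration for 50% growth inhibition is given as GI50.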 Activity calls are given as the source filed them. Cut-off read from the data, not from the text of the source: active = GI50 up to about 1.1 µM and inactive = higher.

How the values were obtained:
Experiment in all cases: NCI anticancer screen, dose series, 48 h
EKVX = test system: EKVX
Malme-3M = test system: Malme-3M
SF-268 = test system: SF-268
HL-60 = test system: HL-60
DU-145 = test system: DU-145
NCI-H226 = test system: NCI-H226
MCF7 = test system: MCF7
SN12C = test system: SN12C
UACC-62 = test system: UACC-62
MDA-N = test system: MDA-N
MOLT-4 = test system: MOLT-4
MDA-MB-435 = test system: MDA-MB-435
HT-29 = test system: HT-29
TK-10 = test system: TK-10
NCI-H460 = test system: NCI-H460
OVCAR-3 = test system: OVCAR-3
OVCAR-4 = test system: OVCAR-4
RPMI-8226 = test system: RPMI-8226
M14 = test system: M14
HCC 2998 = test system: HCC 2998

Structure (SMILES) | GI50 (EKVX) | GI50 (Malme-3M) | GI50 (SF-268) | GI50 (HL-60) | GI50 (DU-145) | GI50 (NCI-H226) | GI50 (MCF7) | GI50 (SN12C) | GI50 (UACC-62) | GI50 (MDA-N) | GI50 (MOLT-4) | GI50 (MDA-MB-435) | GI50 (HT-29) | GI50 (TK-10) | GI50 (NCI-H460) | GI50 (OVCAR-3) | GI50 (OVCAR-4) | GI50 (RPMI-8226) | GI50 (M14) | GI50 (HCC 2998)
CC(C)(C)OC(=O)c1ccc(NCc2cc(O)ccc2O)cc1 | 2.62 µM (inactive) | 1.85 µM (inactive) | 3.44 µM (inactive) | 0.447 µM (active) | 7.78 µM (inactive) | 2.22 µM (inactive) | 3.61 µM (inactive) | 1.27 µM (inactive) | 7.16 µM (inactive) | 3.31 µM (inactive) | 1.03 µM (active) | 2.96 µM (inactive) | 13.5 µM (inactive) | 2.13 µM (inactive) | 10.7 µM (inactive) | 1.04 µM (active) | 1.75 µM (inactive) | 0.617 µM (active) | 1.94 µM (inactive) | 7.36 µM (inactive)
CC1=C(O)C(=O)C[C@]2(C)[C@H]3CC=C4[C@@H]5CC(C)(C)CC[C@@H]5C(=O)[C@H](O)[C@@]4(C)[C@]3(C)CC[C@@H]12 | > 50 µM (inactive) | > 50 µM (inactive) | > 50 µM (inactive) | > 50 µM (inactive) | > 50 µM (inactive) | > 50 µM (inactive) | > 50 µM (inactive) | > 50 µM (inactive) | > 50 µM (inactive) | 47.3 µM (inactive) | > 50 µM (inactive) | > 50 µM (inactive) | > 50 µM (inactive) | 23.9 µM (inactive) | > 50 µM (inactive) | > 50 µM (inactive) | 40.4 µM (inactive) | 42.5 µM (inactive) | > 50 µM (inactive) | 20.4 µM (inactive)
COc1ccccc1C(=O)c1c(NCc2ccccc2)c(=O)c1=O | > 100 µM (inactive) | 23.4 µM (inactive) | > 100 µM (inactive) | 21 µM (inactive) | > 100 µM (inactive) | > 100 µM (inactive) | 0.0254 µM (active) | > 100 µM (inactive) | > 100 µM (inactive) | > 100 µM (inactive) | 23.4 µM (inactive) | > 100 µM (inactive) | > 100 µM (inactive) | > 100 µM (inactive) | > 100 µM (inactive) | > 100 µM (inactive) | > 100 µM (inactive) | 32.9 µM (inactive) | > 100 µM (inactive) | > 100 µM (inactive)
CC(CSc1nc2c(c(=N)n1-c1ccccc1)c(=S)n(-c1ccccc1)c(=S)n2-c1ccccc1)CN(C)C (stereo not given) | 1.66 µM (inactive) | 1.71 µM (inactive) | 1.71 µM (inactive) | 0.615 µM (active) | 1.66 µM (inactive) | 6.38 µM (inactive) | 0.313 µM (active) | 1.81 µM (inactive) | 1.7 µM (inactive) | 1.91 µM (inactive) | 0.931 µM (active) | 1.72 µM (inactive) | 1.95 µM (inactive) | 1.69 µM (inactive) | 1.97 µM (inactive) | 1.71 µM (inactive) | 1.76 µM (inactive) | 0.335 µM (active) | 1.86 µM (inactive) | 1.32 µM (inactive)
COc1ccc(OCC(=N/NC(=O)c2ccncc2)/N=C/c2cccnc2)cc1 | > 100 µM (inactive) | 43.6 µM (inactive) | > 100 µM (inactive) | > 100 µM (inactive) | > 100 µM (inactive) | 61.1 µM (inactive) | 73.1 µM (inactive) | > 100 µM (inactive) | 43.4 µM (inactive) | 17 µM (inactive) | 69.8 µM (inactive) | 18.2 µM (inactive) | > 100 µM (inactive) | > 100 µM (inactive) | > 100 µM (inactive) | 65.8 µM (inactive) | 96.6 µM (inactive) | 67.6 µM (inactive) | 60.5 µM (inactive) | 83.9 µM (inactive)
Cc1cc(Cc2c(F)c(F)c(C(c3cc(C)no3)c3c(F)c(F)c(F)c(F)c3F)c(F)c2F)on1 (stereo not given) | > 100 µM (inactive) | > 100 µM (inactive) | 78.3 µM (inactive) | 5.13 µM (inactive) | > 100 µM (inactive) | > 100 µM (inactive) | 6.76 µM (inactive) | > 50.7 µM (inactive) | > 27 µM (inactive) | 3.04 µM (inactive) | 17.1 µM (inactive) | 3.04 µM (inactive) | 6.08 µM (inactive) | > 100 µM (inactive) | 6.41 µM (inactive) | > 27.4 µM (inactive) | > 100 µM (inactive) | 33.5 µM (inactive) | 24 µM (inactive) | > 27.9 µM (inactive)
Cc1ccc(OCC2OC(n3cnc4c(Cl)nc(N)nc43)CC2Oc2ccc(C)cc2)cc1 (stereo not given) | 9.2 µM (inactive) | 24.5 µM (inactive) | 41.6 µM (inactive) | 13.9 µM (inactive) | 40.8 µM (inactive) | > 43.5 µM (inactive) | 2.75 µM (inactive) | 10.4 µM (inactive) | > 63.5 µM (inactive) | 7.93 µM (inactive) | 25.2 µM (inactive) | > 57.1 µM (inactive) | 46.1 µM (inactive) | 58.6 µM (inactive) | 40.6 µM (inactive) | 21.6 µM (inactive) | 21.4 µM (inactive) | 33 µM (inactive) | 9.27 µM (inactive) | 24.4 µM (inactive)
CC(C)NC(=O)OCc1c(COC(=O)NC(C)C)c(-c2ccc[n+](COC(=O)C3CCCCC3)c2)n2c1CCC2 | > 100 µM (inactive) | 62.5 µM (inactive) | 42.6 µM (inactive) | > 100 µM (inactive) | 28.4 µM (inactive) | > 100 µM (inactive) | 36.6 µM (inactive) | 47.6 µM (inactive) | 24.8 µM (inactive) | > 100 µM (inactive) | 45.5 µM (inactive) | > 100 µM (inactive) | 90.6 µM (inactive) | 94.6 µM (inactive) | 27.9 µM (inactive) | > 100 µM (inactive) | 40.6 µM (inactive) | > 100 µM (inactive) | 56 µM (inactive) | > 100 µM (inactive)
O=C(CC1(O)C(=O)Nc2c(Cl)ccc(Cl)c21)c1ccco1 (stereo not given) | 22.6 µM (inactive) | 20 µM (inactive) | 25.4 µM (inactive) | 14.7 µM (inactive) | 40.3 µM (inactive) | 19.7 µM (inactive) | 14.9 µM (inactive) | 17.3 µM (inactive) | 13.5 µM (inactive) | 3.63 µM (inactive) | 24.9 µM (inactive) | 1.85 µM (inactive) | 22.4 µM (inactive) | > 53 µM (inactive) | 20.4 µM (inactive) | 13.5 µM (inactive) | 7.06 µM (inactive) | 16.8 µM (inactive) | 14.5 µM (inactive) | 33.5 µM (inactive)
CN1C(=O)[C@H](c2c[nH]c3ccccc23)[C@H](c2c[nH]c3ccccc23)C1=O | 29.4 µM (inactive) | 36.5 µM (inactive) | 33.3 µM (inactive) | 5.13 µM (inactive) | 48.3 µM (inactive) | 27.2 µM (inactive) | 29.9 µM (inactive) | 44.2 µM (inactive) | 22.2 µM (inactive) | 38.1 µM (inactive) | 21.6 µM (inactive) | 26.4 µM (inactive) | 34.7 µM (inactive) | 22 µM (inactive) | 23.9 µM (inactive) | 19.5 µM (inactive) | 5.32 µM (inactive) | 24.9 µM (inactive) | 38.8 µM (inactive) | > 52.5 µM (inactive)
COc1ccccc1N1C(=O)/C(=C\c2cc(OC)c(OC)c(OC)c2)SC1c1ccccc1 (stereo not given) | 13.2 µM (inactive) | 20.3 µM (inactive) | 31.6 µM (inactive) | 26.2 µM (inactive) | > 100 µM (inactive) | 28.9 µM (inactive) | 18.2 µM (inactive) | 91 µM (inactive) | 36.1 µM (inactive) | 15.2 µM (inactive) | 9.95 µM (inactive) | 14.9 µM (inactive) | 45.3 µM (inactive) | 53.3 µM (inactive) | 51.5 µM (inactive) | 37.5 µM (inactive) | 49.4 µM (inactive) | 3.11 µM (inactive) | 16.5 µM (inactive) | > 100 µM (inactive)
O=[N+]([O-])c1cc2oc(CSc3ccccc3)nc2cc1Cl | 30.7 µM (inactive) | 50 µM (inactive) | 58.7 µM (inactive) | 30.3 µM (inactive) | 37.7 µM (inactive) | 29.6 µM (inactive) | 42.8 µM (inactive) | 29.9 µM (inactive) | 36.2 µM (inactive) | 35 µM (inactive) | 22.3 µM (inactive) | 32.4 µM (inactive) | 28.1 µM (inactive) | 35.8 µM (inactive) | 26.7 µM (inactive) | 30 µM (inactive) | 34.4 µM (inactive) | 40.9 µM (inactive) | 32.9 µM (inactive) | 23.5 µM (inactive)
C=C(C)[C@]12CC(C)C34OC(/C=C\C=C\CCCCCCCCC)(O[C@@H]1[C@@H]3[C@@H]1O[C@]1(CO)[C@@H](O)[C@]1(O)C(=O)C(C)=C[C@@H]41)O2 (stereo not given in full) | 13.4 µM (inactive) | 0.535 µM (active) | 12.8 µM (inactive) | 0.0103 µM (active) | 8.38 µM (inactive) | 18 µM (inactive) | 10.6 µM (inactive) | 2.42 µM (inactive) | 10 µM (inactive) | 0.01 µM (active) | 2.14 µM (inactive) | 0.0223 µM (active) | 2.21 µM (inactive) | 0.000288 µM (active) | 0.01 µM (active) | 6.41 µM (inactive) | 9.93 µM (inactive) | 11.9 µM (inactive) | 13.1 µM (inactive) | 0.01 µM (active)
